Like-named read-outs stand apart in the source and are kept apart here.
Key:
KMS-11 cells = experiment: 6-day CellTiter-Glo cell viability, KMS-11; format: cell-based, human
[1] = system: splicing of Ad2.2 pre-mRNA in HeLa nuclear extract; experiment: In vitro splicing (IVS), qPCR readout, Ad2.2 substrate; format: biochemical
Experimental: To evaluate payload activity in a cell-free system, an in vitro splicing assay was performed. The payloads were incubated with nuclear extracts and pre-mRNA substrate minigenes.
HeLa nuclear extract preparation: HeLa S3 cell pellets were resuspended in hypotonic buffer (10 mM HEPES pH 7.9, 1.5 mM MgCl2, 10 mM KCl, 0.2 mM PMSF, 0.5 mM DTT) and the suspension was brought up to a total of 5 packed cell volume (PCV). After centrifugation, the supernatant was discarded, and the cells were brought up to 3 PCV with hypotonic buffer and incubated on ice for 10 min. Cells were lysed using a dounce homogenizer and then centrifuged. The supernatant was discarded, and the pellet was resuspended with ½ packed nuclear volume (PNV) of low salt buffer (20 mM HEPES pH 7.9, 1.5 mM MgCl2, 20 mM KCl, 0.2 mM EDTA, 25% glycerol, 0.2 mM PMSF, 0.5 mM DTT), followed by ½ PNV of high salt buffer (same as low salt buffer except 1.4 M KCl). The nuclei were gently mixed for 30 min before centrifuging. The supernatant (nuclear extract) was then dialyzed into storage buffer (20 mM HEPES pH 7.9, 100 mM KCl, 0.2 mM EDTA, 20% glycerol, 0.2 mM PMSF, 0.5 mM DTT). Protein concentration was determined using NanoDrop 8000 UV-Vis spectrophotometer (ThermoFisher Scientific). […]

OPM2 cells = experiment: CellTiter-Glo cell viability, OPM2 (normal serum); format: cell-based, human; conditions: for GI50: Homo sapiens
LP-1 cells = experiment: 6-day CellTiter-Glo cell viability, LP-1; format: cell-based, human
SF3b complex = molecular target: T1, SF3b complex (Homo sapiens, UniProt O75533+Q7RTV0); experiment: SF3B1 binding / scintillation proximity assay (SPA); conditions: competition with 2.5 nM [3H]-pladienolide B probe
T1 construct: endogenous in cells; host or cells: nuclear extracts
Experimental: A scintillation proximity assay was performed to measure the binding affinity of compounds (“payloads”) to the SF3b complex. Batch immobilization of anti-SF3B1 antibody (MBL) to anti-mouse PVT SPA scintillation beads (PerkinElmer) was prepared. For every 2.5 mg of nuclear extracts, 5 μg of anti-SF3B1 antibody and 1.5 mg of beads were mixed in 150 μL PBS. The antibody-bead mixture was incubated for 30 min at room temperature (RT) and centrifuged at 18,000 g for 5 min. 150 μL PBS was used to resuspend every 1.5 mg antibody-bead mixture. The beads were suspended and added to the prepared nuclear extracts. The slurry was incubated for 2 hours at 4° C. with gentle mixing. The beads were then collected by centrifuging at 18,000 g for 5 min, and washed twice with PBS+0.1% Triton X-100. After a final centrifugation step, every 1.5 mg of beads was suspended with 150 μL of PBS. SF3b complexes were tested for [^3H]-labeled pladienolide B probe binding ([^3H]-PB), synthesized as previously described (Kotake et al. (2007) Nat Chem Biol. 3(9):570-5). 100 μL binding reactions were prepared with 50 μL bead slurry and by adding varying concentrations of PB or PB-OH, and after 30 min pre-incubation, 2.5 nM of [^3H]-PB was added. The mixture was incubated for 30 min, and luminescence signals were read using a MicroBeta2 Plate Counter (PerkinElmer). […]

RPMI-8226 cells = experiment: 6-day CellTiter-Glo cell viability, RPMI-8226; format: cell-based, human

With `CC[C@H](O)[C@@H](C)[C@H]1O[C@@H]1C[C@@](C)(O)/C=C/C=C(\C)[C@H]1OC(=O)C[C@H](O)CC[C@@](C)(O)[C@@H](OC(=O)N2CCNCC2)/C=C/[C@@H]1C` [D1, (2S,3S,6S,7R,10R,E)-7,10-dihydroxy-2-((R,2E,4E)-6-hydroxy-7-((2R,3R)-3-((2R,3S)-3-hydroxypentan-2-yl)oxiran-2-yl)-6-methylhepta-2,4-dien-2-yl)-3,7-dimethyl-12-oxooxacyclododec-4-en-6-yl piperazine-1-carboxylate] the GI50 (KMS-11 cells; Homo sapiens, KMS-11, 144 h) was 232 nM, the “AUC (nM * % relative viability)” value (KMS-11 cells; KMS11 cells, 6 days) was 706.5255 nM * % relative viability and the LD50 (KMS-11 cells; KMS11 cells, 6 days, CellTiter-Glo) was 485.9409 nM. For the same compound, the RminAve (KMS-11 cells; KMS11 cells, 6 days, negative = cell death vs T0) was −99.3474%, the IC50 [1] was 25 nM and the GI50 (OPM2 cells; OPM-2, 96 h, read-out: CTGlo Mean GI50 OPM2 96 h) was 287 nM. For the same compound, the GI50 (OPM2 cells; OPM-2, 144 h) was 117 nM, the “AUC (nM * % relative viability)” value (OPM2 cells; OPM2 cells, 6 days) was 649.8734 nM * % relative viability and the LD50 (OPM2 cells; OPM2 cells, 6 days, CellTiter-Glo) was 256.8053 nM. The RminAve (OPM2 cells; OPM2 cells, 6 days, negative = cell death vs T0) was −99.7805%, the “CTGlo Mean LD50 OPM2 96 h” value (OPM2 cells; payload alone, OPM2, 96 h) was 67.1 nM and the GI50 (LP-1 cells; Homo sapiens, LP-1, 144 h) was 112 nM. The “AUC (nM * % relative viability)” value (LP-1 cells; LP1 cells, 6 days) was 643.9226 nM * % relative viability, the LD50 (LP-1 cells; LP1 cells, 6 days, CellTiter-Glo) was 234.5168 nM and the RminAve (LP-1 cells; LP1 cells, 6 days, negative = cell death vs T0) was −99.7195%. For the same compound, the IC50 (SF3b complex) was 21.3 nM, the GI50 (RPMI-8226 cells; Homo sapiens, RPMI-8226, 144 h) was 122 nM and the “AUC (nM * % relative viability)” value (RPMI-8226 cells; RPMI8226 cells, 6 days) was 648.8833 nM * % relative viability. It also gave an LD50 (RPMI-8226 cells; RPMI8226 cells, 6 days, CellTiter-Glo) of 253.1965 nM and a RminAve (RPMI-8226 cells; RPMI8226 cells, 6 days, negative = cell death vs T0) of −99.6002%.
